Assay results published in patent US12478677B2, “Tunable luminescent organic salts for enhanced imaging and photodynamic therapy” (BOARD OF TRUSTEES OF MICHIGAN STATE UNIVERSITY, priority 2017, dated 2025).
Entries after “also recorded” stand apart in the source; their conditions may differ. Read-outs that look alike come from different tables or passages of the source.

Legend:
A549 cells = assay: Viability studies (trypan blue staining and cell counting) with or without IR excitation; type: cell-based, human; details: for IC50: linear regression analysis; for Toxicity in words, dark and light: with or without IR (850 nm) excitation; for Concentration at which still non-toxic: cells
Description: The cell lines human lung carcinoma (A549), metastatic human melanoma (WM1158) and Vemurafenib-resistant melanoma (Sk-Mel-28-Vem^R) are used. Sk-Mel-28-Vem^R is generated by culturing a parental melanoma cell lines in the presence of 2 μM Vemurafenib for 2 months. Acquired Vemurafenib resistance is defined by >1 log change in IC50 between nonresistant and resistant cell lines. Resistance is maintained through media supplementation with 2 μM Vemurafenib, which is changed every 48 hours. All cells are cultured in DMEM without pyruvate with 10% heat inactivated fetal bovine serum supplemented with glutamine and penicillin/streptomycin, and incubated in 37° C. with 5% CO2.
A549 and WM1158 cells are seeded at a density of 50,000 cells per well in 6-well tissue culture plates. After 24 hours of incubation, media is aspirated and replaced with media containing luminescent dyes at indicated concentrations. Each well is irradiated with an 850 nm LED lamp with an illumination rate of 526 mW/cm^2 for an hour in the incubator, and control cells are left in a dark incubator without irradiation. For studies with Cy7, a 740 nm LED lamp is used instead of an 850 nm, but with a similar illumination flux. Immediately after irradiation, the media is replenished with fresh dye-laced media and allowed to incubate for another 24 hours. […] Viable cell number is determined at 24 and 96 hours using trypan blue staining and a Nexcelom Cellometer Auto T4 cell counter. All assays are done with 3 biological replicates. The fold change in cell proliferation over days of treatment was calculated using the following equation.

mitochondrial superoxide = assay: MitoSOX measurement of mitochondrial superoxide; type: cell-based, human; details: A549 cells treated 4 days at phototoxic concentrations; with or without light
Description: FIG. 22. Luminescent organic salts generate mitochondrial ROS. […] MitoSOX is used to measure mitochondrial superoxide, and H2DCFDA for general cytoplasmic ROS in A549 cell treated with organic salts at indicated phototoxic concentrations for 4 days.
Photoactive agents accumulate in the mitochondria of cancer cells and generate reactive oxygen species (ROS) with light exposure, depolarizing the mitochondrial membrane potential to cause cell death. Small molecule protective agents that quench ROS have been used to decrease their phototoxicity. However, the exact type of ROS generated by each luminescent agent remains unclear. Photo-induced ROS include singlet oxygen, superoxide radical anion, hydrogen peroxide, hydroxyl radical and others (see FIG. 21). Superoxide is a highly reactive and biologically toxic species deployed in nature to kill invading organisms. It is often formed as a byproduct of mitochondrial respiration but is typically quenched by the highly efficient superoxide dismutase. Hydroxyl radicals are also highly reactive, damaging nearly all forms of biological molecules. Unlike superoxide radical, the hydroxyl radical cannot be easily quenched naturally via enzymes, and endogenous antioxidants are typically required. Singlet oxygen is the excited state of the common triplet oxygen (O2 ground state) and is highly reactive towards organic compounds. Singlet oxygen can be eliminated in mammalian systems by antioxidants. A range of nitroxy radicals can subsequently stem from superoxide (peroxynitrite) or peroxide (nitrogen dioxide) species. […] Each luminescent cation-anion pair generates specific ROS resonant with its own energy level, and cell types can be targeted by generating the key sensitizing ROS. For example, it is expected that CyFPhB is phototoxic (see FIGS. 11A and 11B and 12A and 12B) by generating reactive oxygen species, which can be resonant with its molecular orbital energy levels (FIG. 21). […] No cytoplasmic ROS is detected using general cytoplasmic ROS probe H2DCFDA. […]

[1] = Nanoparticle aggregation size from SEM images; type: physicochemical; details: no observable precipitation
Description: FIG. 6. is a graph showing exemplary nanoparticle aggregation size distribution measured from SEM images (inset, scale bar=100 nm) of CyTPFB. Average aggregate size is 5.6±1.8 nm with no observable precipitation. […] This is achieved by cation-anion pairs of luminescent organic salts that can be modulated to be either non-toxic for enhanced imaging, or phototoxic for improved PDT. […] IR polymethine cyanine dyes, which have been used as effective theranostics are described. […] This is thought to occur through a mechanism mitigated by tumor vascularization, increased retention in cancer cells, and mitochondrial depolarization. Once in the cell, they accumulate in the mitochondria and lysosomes, where irradiation induces generation of cytotoxic oxygen species. A strategy is described for preventing or inhibiting salt dissociation in cells: aggregates are formed via introduction of the salt into an aqueous media by a solvent vehicle, forming particles with diameters of about 5 nm in size with no precipitation observed. […] This is confirmed by high resolution mass spectrometry, electron microscopy, and UV-Vis spectroscopy. […] Normalized absorption data are sown in FIGS. 7A, 7B, and 7C. This is likely due to steric effects, where if the counterion radius is too small it is not able to protect the nanoparticle stability. […]

CCN1C(=CC=C2CCCC(C=CC3=[N+](CC)c4ccc5ccccc5c4C3(C)C)=C2Cl)C(C)(C)c2c1ccc1ccccc21.Fc1c(F)c(F)c([B-](c2c(F)c(F)c(F)c(F)c2F)(c2c(F)c(F)c(F)c(F)c2F)c2c(F)c(F)c(F)c(F)c2F)c(F)c1F [CyTPFB]
IC50 (A549 cells; A549 cells, 850 nm irradiation, read-out: IC50 850 nm): 11 µM | Phototoxicity with IR excitation, in words (A549 cells; A549 cells, IR (850 nm) excitation): non phototoxic to orders of magnitude higher concentrations | IC50 (A549 cells; A549 cells, dark, no irradiation, read-out: IC50 Dark): 126 µM | Fold concentration relative to CyPF6 at which still non-toxic (A549 cells; A549 cells, listed as Cy^+ paired with TPFB^−): greater than 75 fold | Toxicity in words, dark and light (A549 cells; A549 cells): non-toxic | Toxicity in words, dark and light (A549 cells; A549 cells, listed as Cy^+ paired with TPFB): not toxic to cells in the dark and in the light | Toxicity in the dark, in words (A549 cells; A549 cells, without IR excitation): deactivates the dark cellular toxicity | Concentration at which still non-toxic (A549 cells): 20 µM | Concentration at which still non-toxic (A549 cells; listed as Cy^+ paired with TPFB^−): 126 µM | Mitochondrial superoxide / ROS generation (MitoSOX), in words (mitochondrial superoxide): generating minimal ROS even with light at high concentrations; also recorded: generating minimal superoxide even with light | Average aggregate size [1]: 5.6±1.8 nm
